Measured values from ChEMBL document CHEMBL4831527, “Structure-Based Design and Discovery of Pyridyl-Bearing Fused Bicyclic HIV-1 Inhibitors: Synthesis, Biological Characterization, and Molecular Modeling Studies” (J Med Chem, 2021).
Calls of active or inactive are those of the source. The calls are words filed in the database; no cut-off is given here.

How the values were obtained:
[1] = test system: Human immunodeficiency virus 2; assay: Antiviral activity against HIV2 ROD infected in human MT4 cells assessed as protection against virus-induced cytopathogenicity after 5 days by MTT assay; type: functional, organism-based; settings: time 5.0 day
[2] = test system: Human immunodeficiency virus 1; assay: Antiviral activity against HIV1 harboring reverse transcriptase Y181C mutant infected in human MT4 cells assessed as protection against virus-induced cytopathic effect incubated for 5 days by MTT assay; type: functional, organism-based; settings: Human immunodeficiency virus 1, MT4, 120 h
[3] = molecular target: Human immunodeficiency virus type 1 reverse transcriptase (Human immunodeficiency virus 1, UniProt Q72547); assay: Inhibition of wild type HIV1 p66/p51 reverse transcriptase using poly(rA) as template, oligo(dT)16 as primer and RNA/DNA as substrate measured after 40 mins by PICOGreen-dye based spectrofluorimetry analysis
[4] = test system: Human immunodeficiency virus 1; assay: Antiviral activity against HIV1 harboring reverse transcriptase Y188L mutant infected in human MT4 cells assessed as protection against virus-induced cytopathic effect incubated for 5 days by MTT assay; type: functional, organism-based; settings: Human immunodeficiency virus 1, MT4, 120 h
[5] = test system: Human immunodeficiency virus 1; assay: Antiviral activity against HIV1 RES056 infected in human MT4 cells assessed as protection against virus-induced cytopathic effect incubated for 5 days by MTT assay; type: functional, organism-based; settings: Human immunodeficiency virus 1, RES056, MT4, 120 h
[6] = test system: Human immunodeficiency virus 1; assay: Antiviral activity against HIV1 harboring reverse transcriptase F227L/V106A double mutant infected in human MT4 cells assessed as protection against virus-induced cytopathic effect incubated for 5 days by MTT assay; type: functional, organism-based; settings: Human immunodeficiency virus 1, MT4, 120 h
[7] = test system: Human immunodeficiency virus 1; assay: Antiviral activity against HIV1 harboring reverse transcriptase E138K mutant infected in human MT4 cells assessed as protection against virus-induced cytopathic effect incubated for 5 days by MTT assay; type: functional, organism-based; settings: Human immunodeficiency virus 1, MT4, 120 h
[8] = Cytotoxicity against mock-infected human MT4 cells assessed as reduction in cell viability measured after 5 days by MTT assay; type: cell-based; settings: time 5 day
[9] = Selectivity index, ratio of CC50 for mock-infected human MT4 cells to EC50 for HIV1 3B infected in human MT4 cells; type: toxicity, cell-based; settings: MT4 cells (mock-infected and HIV1 3B infected), read-out: Ratio CC50/EC50
[10] = Selectivity index, ratio of CC50 for mock-infected human MT4 cells to EC50 for HIV1 RES056 infected in human MT4 cells; type: toxicity, cell-based; settings: MT4 cells (mock-infected and HIV1 RES056 infected), read-out: Ratio CC50/EC50
[11] = test system: Human immunodeficiency virus 1; assay: Antiviral activity against HIV1 harboring reverse transcriptase K103N mutant infected in human MT4 cells assessed as protection against virus-induced cytopathic effect incubated for 5 days by MTT assay; type: functional, organism-based; settings: Human immunodeficiency virus 1, MT4, 120 h
[12] = test system: Human immunodeficiency virus 1; assay: Antiviral activity against HIV1 3B infected in human MT4 cells assessed as protection against virus-induced cytopathic effect incubated for 5 days by MTT assay; type: functional, organism-based; settings: Human immunodeficiency virus 1, 3B, MT4, 120 h
[13] = test system: Human immunodeficiency virus 1; assay: Antiviral activity against HIV1 harboring reverse transcriptase L100I mutant infected in human MT4 cells assessed as protection against virus-induced cytopathic effect incubated for 5 days by MTT assay; type: functional, organism-based; settings: Human immunodeficiency virus 1, MT4, 120 h

Structure (SMILES): Cc1cc(C#N)cc(C)c1Oc1nc(Nc2ccc(C#N)cc2)nc2c1ccn2CO
- Activity [1]: inactive
- EC50 [2]: 31.2 nM
- IC50 [3]: 40 nM
- EC50 [4]: > 707 nM
- EC50 [5]: 128 nM
- EC50 [6]: > 707 nM
- EC50 [7]: > 707 nM
- CC50 at 120 h [8]: 830 nM
- selectivity ratio [9]: 137
- selectivity ratio [10]: 6
- EC50 [11]: 3.7 nM
- EC50 [12]: 6.1 nM
- EC50 [13]: 20.1 nM

Structure (SMILES): Cc1cc(C#N)cc(C)c1Oc1nc(Nc2ccc(C#N)cc2)nc(N)c1Br [ETRAVIRINE]
- EC50 [2]: 213 nM
- EC50 [4]: 27.2 nM
- EC50 [5]: 473 nM
- EC50 [6]: 25.7 nM
- EC50 [7]: 15.2 nM
- CC50 at 120 h [8]: > 4600 nM
- EC50 [11]: 3.9 nM
- EC50 [12]: 4.8 nM
- EC50 [13]: 7.4 nM

Structure (SMILES): Cc1cc(C=O)cc(C)c1Oc1nc(Nc2ccc(C#N)nc2)nc2c1CCCC2
- Activity [1]: inactive
- IC50 [3]: 43 nM
- EC50 [5]: 9210 nM
- CC50 at 120 h [8]: 20900 nM
- selectivity ratio [9]: 590
- selectivity ratio [10]: 2
- EC50 [12]: 35.4 nM

Structure (SMILES): Cc1cc(C#N)cc(C)c1Oc1nc(Nc2ccc(C#N)nc2)nc2c1ccn2COCC[Si](C)(C)C
- Activity [1]: inactive
- IC50 [3]: 7400 nM
- EC50 [5]: > 117000 nM
- CC50 at 120 h [8]: 117000 nM
- selectivity ratio [9]: 463
- selectivity ratio [10]: < 1
- EC50 [12]: 253 nM

Structure (SMILES): Cc1cc(C=O)cc(C)c1Oc1nc(Nc2ccc(C#N)cn2)nc2c1CCCC2
- Activity [1]: inactive
- IC50 [3]: 58 nM
- EC50 [5]: > 35300 nM
- CC50 at 120 h [8]: 293000 nM
- selectivity ratio [9]: 1250
- selectivity ratio [10]: 58
- EC50 [12]: 234 nM

Structure (SMILES): Cc1cc(C=O)cc(C)c1Oc1nc(Nc2ccc(C#N)cc2)nc2c1CCCC2
- Activity [1]: inactive
- EC50 [2]: 748 nM
- IC50 [3]: 55 nM
- EC50 [4]: 663 nM
- EC50 [5]: 1200 nM
- EC50 [6]: 2240 nM
- EC50 [7]: 146 nM
- CC50 at 120 h [8]: 5900 nM
- selectivity ratio [9]: 169
- selectivity ratio [10]: 5
- EC50 [11]: 63.7 nM
- EC50 [12]: 35.1 nM
- EC50 [13]: 492 nM

Structure (SMILES): Cn1c(Cn2ccc(C(F)(F)F)c(Oc3cc(Cl)cc(C#N)c3)c2=O)n[nH]c1=O [DORAVIRINE]
- EC50 [5]: 15 nM
- CC50 at 120 h [8]: > 294000 nM
- selectivity ratio [9]: > 21900
- selectivity ratio [10]: > 20100
- EC50 [12]: 13 nM

Structure (SMILES): Cc1cc(C#N)cc(C)c1Oc1nc(Nc2ccc(OC(F)(F)F)cc2)nc2c1CCCC2
- Activity [1]: inactive
- IC50 [3]: 61000 nM
- EC50 [5]: > 275000 nM
- CC50 at 120 h [8]: > 275000 nM
- selectivity ratio [9]: > 3410
- EC50 [12]: 80.6 nM

Structure (SMILES): Cc1cc(C#N)cc(C)c1Oc1nc(Nc2ccc(C#N)nc2)nc2c1CCCC2
- Activity [1]: inactive
- IC50 [3]: 50 nM
- EC50 [5]: > 12600 nM
- CC50 at 120 h [8]: 244000 nM
- selectivity ratio [9]: 228
- selectivity ratio [10]: < 19
- EC50 [12]: 1070 nM

Structure (SMILES): Cc1cc(C#N)cc(C)c1Oc1nc(Nc2ccc(C#N)cc2)nc2c1ccn2COCC[Si](C)(C)C
- Activity [1]: inactive
- IC50 [3]: 171 nM
- EC50 [5]: > 2960 nM
- CC50 at 120 h [8]: 3000 nM
- selectivity ratio [9]: 4
- selectivity ratio [10]: < 1
- EC50 [12]: 820 nM

Structure (SMILES): O=C1Nc2ccc(Cl)cc2[C@@](C#CC2CC2)(C(F)(F)F)O1 [EFAVIRENZ]
- EC50 [4]: 244 nM
- EC50 [5]: 144 nM
- EC50 [6]: 274 nM
- EC50 [7]: 6 nM
- CC50 at 120 h [8]: > 6300 nM
- selectivity ratio [9]: > 1390
- selectivity ratio [10]: > 44
- EC50 [12]: 4.5 nM
- EC50 [13]: 51.6 nM

Structure (SMILES): Cc1cc(/C=C/C#N)cc(C)c1Oc1nc(Nc2ccc(CC#N)cc2)nc2c1CCCC2
- Activity [1]: inactive
- EC50 [2]: 140 nM
- IC50 [3]: 49 nM
- EC50 [4]: > 25800 nM
- EC50 [5]: 433 nM
- EC50 [6]: > 25800 nM
- EC50 [7]: > 25800 nM
- CC50 at 120 h [8]: 48300 nM
- selectivity ratio [9]: 2730
- selectivity ratio [10]: 112
- EC50 [11]: 12.9 nM
- EC50 [12]: 17.7 nM
- EC50 [13]: 49 nM

Structure (SMILES): Cc1cc(C#N)cc(C)c1Oc1nc(Nc2ccc(C#N)nc2)nc2c1ccn2CO
- Activity [1]: inactive
- IC50 [3]: 47 nM
- EC50 [5]: > 138000 nM
- CC50 at 120 h [8]: ≥ 138000 nM
- selectivity ratio [9]: ≥ 2950
- EC50 [12]: 46.9 nM

Structure (SMILES): Cc1cc(/C=C/C(N)=O)cc(C)c1Oc1nc(Nc2ccc(C#N)cc2)nn2cccc12
- Activity [1]: inactive
- IC50 [3]: 53 nM
- EC50 [5]: 5850 nM
- CC50 at 120 h [8]: 57600 nM
- selectivity ratio [9]: 1590
- selectivity ratio [10]: 10
- EC50 [12]: 36.3 nM

Structure (SMILES): Cc1cc(C#N)cc(C)c1Oc1nc(Nc2ccc(S(C)(=O)=O)cc2)nc2c1CCCC2
- Activity [1]: inactive
- IC50 [3]: 69 nM
- EC50 [5]: > 279000 nM
- CC50 at 120 h [8]: > 279000 nM
- selectivity ratio [9]: > 4920
- EC50 [12]: 56.7 nM

Structure (SMILES): Cc1cc(C#N)cc(C)c1Oc1nc(Nc2ccc(C#N)cn2)nc2c1ccn2COCC[Si](C)(C)C
- Activity [1]: inactive
- IC50 [3]: 31000 nM
- EC50 [5]: > 93900 nM
- CC50 at 120 h [8]: 93900 nM
- selectivity ratio [9]: < 1
- selectivity ratio [10]: < 1
- EC50 [12]: > 93900 nM

Structure (SMILES): Cc1cc(C)c(Oc2nc(Nc3ccc(C#N)cc3)nc3c2CCCC3)c(C)c1
- Activity [1]: inactive
- EC50 [2]: 232 nM
- IC50 [3]: 241 nM
- EC50 [4]: 191 nM
- EC50 [5]: 805 nM
- EC50 [6]: 524 nM
- EC50 [7]: 171 nM
- CC50 at 120 h [8]: 6800 nM
- selectivity ratio [9]: 177
- selectivity ratio [10]: 8
- EC50 [11]: 57 nM
- EC50 [12]: 38.6 nM
- EC50 [13]: 96.9 nM

Structure (SMILES): Cc1cc(C#N)cc(C)c1Oc1nc(Nc2ccc(C#N)nc2)nn2cccc12
- Activity [1]: inactive
- EC50 [2]: 171 nM
- IC50 [3]: 14 nM
- EC50 [4]: > 69100 nM
- EC50 [5]: 1220 nM
- EC50 [6]: > 69100 nM
- EC50 [7]: > 69100 nM
- CC50 at 120 h [8]: 69100 nM
- selectivity ratio [9]: 9830
- selectivity ratio [10]: 57
- EC50 [11]: 11.9 nM
- EC50 [12]: 7 nM
- EC50 [13]: 204 nM

Structure (SMILES): Cc1cc(C#N)cc(C)c1Oc1nc(Nc2ccc(C#N)cc2)nc2c1CCCC2
- Activity [1]: inactive
- EC50 [2]: 52.7 nM
- IC50 [3]: 52 nM
- EC50 [4]: 24.5 nM
- EC50 [6]: 58.4 nM
- EC50 [7]: 19 nM
- selectivity ratio [9]: 298
- EC50 [11]: 7.1 nM
- EC50 [12]: 10.6 nM
- EC50 [13]: 12.8 nM
